# “Also recorded” adds a separate entry of the source. Read-outs that look alike come from different tables or passages of the source. Marks after values point to notes of the source that are not given here.
# Assays:
# BRCA‐mutated tumors = settings: phase 1, single agent; cited from earlier work
# [1] = Plasma pharmacokinetics, cycle 1 day 1, noncompartmental; assay type: in vivo, Japanese patients; settings: for half-life / AUC(0-inf) / Cmax / AUC(0-t): human, plasma; for half-life: harmonic mean ± pseudo SD; for AUC(0-inf) / Cmax / AUC(0-t): mean ± SD; for AUC(0-t): read-out: AUC0–8
# Text: Noncompartmental methods were used to determine the maximum observed plasma concentration (C max), the time to C max (T max), the area under the plasma concentration‐time curve (AUC), and terminal elimination half‐life (t 1/2).
# advanced solid tumors = assay: Preliminary antitumor efficacy (RECIST version 1.1, TTP); assay type: in vivo, Japanese patients; settings: for ORR: measurable disease
# Experimental: To determine preliminary antitumor efficacy, baseline radiographic tumor assessments were conducted within 3 weeks prior to registration and thereafter every 8 weeks from cycle 1 day 1 and at the final visit, using the Response Evaluation Criteria In Solid Tumors (RECIST) version 1.1.30 In addition, the investigator evaluated the patient for evidence of clinical disease progression at each visit. Changes in measurable tumor lesions were assessed to determine the response rate, defined as proportion of patients with complete response (CR) or partial response (PR), and time to progression (TTP), defined as the number of days from the date the patient was dosed to the date the patient experienced an event of progressive disease (PD). […] Changes from baseline in performance status were analyzed.
# Unless otherwise noted, for all statistical analyses, statistical significance was determined by a two‐sided P‐value ≤0.05. Descriptive statistics were used to describe baseline demographic variables, and summary statistics were computed for PK variables at each sampling time. PK variables were determined per patient and dose level. The safety of veliparib was assessed by evaluating veliparib exposure, AEs, SAEs, all deaths, and changes in laboratory determinations and vital sign parameters. The proportion of patients with CR or PR was estimated with a 95% confidence interval (CI) constructed for the estimated proportion. The distribution of TTP was estimated using Kaplan‐Meier methodology.
# [2] = tested on: recurrent ovarian cancer and germline BRCA1 and BRCA2 mutations; settings: cited from earlier work
# [3] = tested on: cancer antigen 125 (CA‐125); assay: CA-125 tumor marker response (GCIG definition); assay type: in vivo, Japanese patients
# Experimental: All enrolled patients with ovarian cancer or peritoneal cancer had measurements of cancer antigen 125 (CA‐125) on day 1 of cycle 1, every cycle (28 days) thereafter, and at the final visit. CA‐125 response was measured according to the Gynecologic Cancer InterGroup (GCIG) CA‐125 response definition.31
# [4] = Phase 1 tolerability and safety (DLT, TEAEs, NCI CTCAE v4.0); assay type: in vivo, Japanese patients
# Experimental: Eligible patients were assigned to one of two treatment groups (dose levels). […] Three to six patients were enrolled in each treatment group. Dose escalation was carried out according to a 3 + 3 design to define dose‐limiting toxicities (DLTs), and the maximum administered dose/recommended phase 2 dose (RP2D). […] Patients received treatment for a maximum of 30 cycles or until treatment discontinuation. […] Treatment could be postponed for up to 28 days due to toxicity; longer toxicity‐related delays would lead to study discontinuation.
# The maximum tolerated dose (MTD) was defined as the highest dose level at which fewer than two of total six patients or <33% of patients (if the cohort was expanded beyond six patients) experienced a DLT. The RP2D was determined based on the observed DLTs and identified MTD; RP2D would not be dosed higher than the MTD. If the MTD was not reached, the RP2D was defined based on the safety and PK data. Prophylactic use of antiemetics and colony‐stimulating factors was not permitted during the DLT‐evaluation period, in order to clearly define the safety profile in Japanese patients.
# The safety of each treatment group was assessed by evaluating study drug exposure, AEs, serious AEs (SAEs), all deaths, changes in laboratory determinations, and vital signs parameters. […] AEs were assessed according to the NCI CTCAE version 4.0.29 An independent data monitoring committee reviewed safety data for DLT evaluation.
# [5] = 200 mg oral, cycle 1 day 1, n = 4
# [6] = 400 mg oral, cycle 1 day 1, n = 9
# [7] = 400 mg oral, cycle 1 day 1, n = 12
# [8] = 14 patients with measurable disease
compound,measurement,setting,value
C[C@]1(c2nc3c(C(N)=O)cccc3[nH]2)CCCN1 [veliparib],clinical benefit rate (called DCR),BRCA‐mutated tumors,68%
same,objective response rate (ORR),BRCA‐mutated tumors,40%
same,half-life,[1]; [5],276 ± 66 min
same,AUC(0-inf),[1]; [5],13600 ± 6240 ng·h/mL
same,Cmax,[1]; [5],2060 ± 1390 ng/mL
same,AUC(0-t),[1]; [5],8890 ± 3770 ng·h/mL
same,half-life,[1]; [6],276 ± 78 min
same,AUC(0-inf),[1]; [6],29500 ± 9820 ng·h/mL
same,Cmax,[1]; [7],3280 ± 1040 ng/mL
same,AUC(0-t),[1]; [7],16600 ± 3590 ng·h/mL
same,increase of C max and AUC with dose,[1]; single‐dose oral 200 mg and 400 mg,dose‐proportional
same,Best response: CR,advanced solid tumors; 200 mg BID (n = 4),0 n (%)
same,Best response: Not evaluable,advanced solid tumors; 200 mg BID (n = 4),1 (25.0) n (%)
same,Best response: PD,advanced solid tumors; 200 mg BID (n = 4),1 (25.0) n (%)
same,Best response: PR,advanced solid tumors; 200 mg BID (n = 4),1 (25.0) n (%)
same,Best response: Stable disease,advanced solid tumors; 200 mg BID (n = 4),1 (25.0) n (%)
same,DCR (CR + PR + stable disease),advanced solid tumors; 200 mg BID (n = 4),2 (50.0) n (%)
same,ORR,"advanced solid tumors; 200 mg BID (n = 4), 95% CI 0.6–80.6",1 ^§ (25.0) [0.6–80.6] %
same,Median TTP,advanced solid tumors; 200 mg dose cohort,"106 (range, 17–226) days"
same,Best response: CR,advanced solid tumors; 400 mg BID (n = 10),0 n (%)
same,Best response: Not evaluable,advanced solid tumors; 400 mg BID (n = 10),0 n (%)
same,Best response: PD,advanced solid tumors; 400 mg BID (n = 10),2 (20.0) n (%)
same,Best response: PR,advanced solid tumors; 400 mg BID (n = 10),1 (10.0) n (%)
same,Best response: Stable disease,advanced solid tumors; 400 mg BID (n = 10),7 (70.0) n (%)
same,DCR (CR + PR + stable disease),advanced solid tumors; 400 mg BID (n = 10),8 (80.0) n (%)
same,ORR,"advanced solid tumors; 400 mg BID (n = 10), 95% CI 0.3–44.5",1 ^¶ (10.0) [0.3–44.5] %
same,Median TTP,advanced solid tumors; 400 mg dose cohort,"170 (range, 48–340) days"
same,disease control overall,advanced solid tumors; 12 of 16 patients,75%
same,patients progressed at first tumor assessment,advanced solid tumors; [8],21.4%
same,patients with best objective response stable disease,advanced solid tumors; [8],eight patients
same,patients with best objective response PR,"advanced solid tumors; 14 patients with measurable disease, both with platinum sensitive ovarian cancer",Two patients
same,patients who discontinued treatment due to disease progression,advanced solid tumors; all 16 patients,75%
same,median percentage change from baseline in the sum of the tumor sizes of target lesions,"advanced solid tumors; all patients, range, −46.8% to +50.0%",−10.3%
same,"disease control rate (DCR, CR + PR + stable disease)",advanced solid tumors; patients with measurable disease (10/14),71.4%
same,Median TTP,"advanced solid tumors; platinum sensitive ovarian or peritoneal cancer, 400 mg BID, range, 48–340",218 days
same,Best response: CR,advanced solid tumors; total (n = 14),0 n (%)
same,Best response: Not evaluable,advanced solid tumors; total (n = 14),1 (7.1) n (%)
same,Best response: PD,advanced solid tumors; total (n = 14),3 (21.4) n (%)
same,Best response: PR,advanced solid tumors; total (n = 14),2 (14.3) n (%)
same,Best response: Stable disease,advanced solid tumors; total (n = 14),8 (57.1) n (%)
same,DCR (CR + PR + stable disease),advanced solid tumors; total (n = 14),10 (71.4) n (%)
same,ORR,"advanced solid tumors; total (n = 14), 95% CI 1.8–42.8",14.3%
same,ORR,"advanced solid tumors; total (n = 14), 95% CI 1.8–42.8, listed as Veliparib",2 (14.3) [1.8–42.8] %
same,best objective response,advanced solid tumors; two patients without measurable disease at baseline,non‐CR/non‐PD
same,DCR,"[2]; GOG‐280 study, germline BRCA1 or BRCA2 mutation",74.0%
same,patients with objective response,"[2]; n = 50, 90% CI: 16–38%",26%
same,CR (number of patients),[2]; n = 50,2
same,PR (number of patients),[2]; n = 50,11
same,median progression‐free survival,[2]; phase 2 monotherapy,8.2 months
same,objective responses,"[2]; platinum‐resistant patients, n = 6/30, 90% CI: 9–36%",20%
same,objective responses,"[2]; platinum‐sensitive patients, n = 7/20, 90% CI: 18–56%",35%
same,median change in CA‐125 level from baseline,"[3]; all patients, range: −97.8% to +155.2%",−18.8%
same,patients achieving CA‐125 response,[3]; ovarian (n = 14) or primary peritoneal cancer (n = 1),20%
same,AEs / toxicities leading to death,[4]; all patients,No toxicities leading to death; also recorded: no AEs or SAEs leading to death
same,patients who discontinued treatment due to AEs/toxicity,"[4]; human, in vivo",6%
same,patients with a grade ≥3 AE / toxicity,"[4]; human, in vivo",50%
same,patients with abdominal pain,"[4]; human, in vivo",31.3%
same,patients with at least one grade ≥1 TEAE,"[4]; human, in vivo",100%
same,patients with decreased appetite,"[4]; human, in vivo",62.5%
same,patients with diarrhea,"[4]; human, in vivo",31.3%
same,patients with dysgeusia,"[4]; human, in vivo",31.3%
same,patients with fatigue,"[4]; human, in vivo",25%
same,patients with insomnia,"[4]; human, in vivo",25%
same,patients with malaise,"[4]; human, in vivo",31.3%
same,patients with nausea,"[4]; human, in vivo",93.8%
same,patients with neutropenia,"[4]; human, in vivo",25%
same,patients with thrombocytopenia,"[4]; human, in vivo",25%
same,patients with vomiting,"[4]; human, in vivo",93.8%
same,recommended phase 2 dose (RP2D),"[4]; human, in vivo, po, 28 days",400 mg BID
same,"anemia leading to dose interruption, reduction, or delay",[4]; in vivo,one patient
same,"decreased appetite leading to dose interruption, reduction, or delay",[4]; in vivo,one patient
same,"essential tremor leading to dose interruption, reduction, or delay",[4]; in vivo,one patient
same,"fatigue leading to dose interruption, reduction, or delay",[4]; in vivo,three patients
same,"nausea leading to dose interruption, reduction, or delay",[4]; in vivo,three patients
same,"neutropenia leading to dose interruption, reduction, or delay",[4]; in vivo,three patients
same,patients experiencing a SAE,[4]; in vivo,two patients
same,patients with a dose‐limiting toxicity (DLT),[4]; in vivo,one patient
same,"thrombocytopenia leading to dose interruption, reduction, or delay",[4]; in vivo,three patients
same,"vomiting leading to dose interruption, reduction, or delay",[4]; in vivo,two patients

# From publication PMC5581522 (Cancer Science, 2017)
